Assay [1] has as its target Ribosomal protein S6 kinase alpha-3 (Homo sapiens) (UniProt P51812). Nature of the assay: Residual activity of Ribosomal S6 kinase 2 (RSK2) at 50 uM.
For assay [2], the target named is Ribosomal protein S6 kinase alpha-5 (Homo sapiens) (UniProt O75582). Nature of the assay: Residual activity of MSK-1 kinase (MSK1) at 50 uM.
Assay [3] concerns the target T1, Ribosomal protein S6 kinase beta-1 (Homo sapiens, UniProt P23443). Conditions: 50 uM.
Target sequence in this assay (P23443 whole entry, looked up): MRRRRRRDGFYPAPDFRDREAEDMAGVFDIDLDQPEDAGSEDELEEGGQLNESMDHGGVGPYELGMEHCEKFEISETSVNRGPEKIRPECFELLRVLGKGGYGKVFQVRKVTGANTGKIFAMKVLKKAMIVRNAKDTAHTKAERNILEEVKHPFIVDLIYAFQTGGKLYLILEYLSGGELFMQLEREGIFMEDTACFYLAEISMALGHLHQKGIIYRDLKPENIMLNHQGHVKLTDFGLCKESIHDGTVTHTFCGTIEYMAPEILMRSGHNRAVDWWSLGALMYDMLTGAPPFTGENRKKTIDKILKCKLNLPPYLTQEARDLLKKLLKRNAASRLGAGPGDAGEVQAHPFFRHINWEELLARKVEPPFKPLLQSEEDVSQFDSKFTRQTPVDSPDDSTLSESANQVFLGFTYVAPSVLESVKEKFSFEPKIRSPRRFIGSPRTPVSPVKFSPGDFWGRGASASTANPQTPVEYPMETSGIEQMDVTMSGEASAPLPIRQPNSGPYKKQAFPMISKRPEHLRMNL
Description: Inhibition of Ribosomal protein S6 kinase 1 (S6K1) at 50 uM
The target in assay [4] is T2, Serine/threonine-protein kinase Sgk1 (Homo sapiens) (UniProt O00141).
T2 sequence (whole entry): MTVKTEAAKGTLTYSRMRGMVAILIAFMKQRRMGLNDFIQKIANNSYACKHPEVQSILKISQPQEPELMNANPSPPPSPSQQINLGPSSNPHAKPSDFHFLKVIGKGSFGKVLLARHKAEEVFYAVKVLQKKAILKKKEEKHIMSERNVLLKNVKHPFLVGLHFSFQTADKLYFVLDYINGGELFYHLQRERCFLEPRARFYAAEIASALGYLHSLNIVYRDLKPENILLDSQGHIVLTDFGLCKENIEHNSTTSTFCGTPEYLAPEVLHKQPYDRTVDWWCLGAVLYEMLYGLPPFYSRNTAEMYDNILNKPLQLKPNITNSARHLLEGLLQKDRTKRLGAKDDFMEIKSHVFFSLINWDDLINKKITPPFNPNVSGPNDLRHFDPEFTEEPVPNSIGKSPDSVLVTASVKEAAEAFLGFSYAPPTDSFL
Nature of the assay: Residual activity of Serum/glucocorticoid regulated kinase (SGK) at 50 uM.

The target of assay [5] is Glycogen synthase kinase-3 beta (Homo sapiens) (UniProt P49841). The experiment in a line: Residual activity of Glycogen synthase kinase-3 beta (GSK3-beta) at 50 uM.
Sequence of Glycogen synthase kinase-3 beta (Homo sapiens) (P49841 whole entry, looked up): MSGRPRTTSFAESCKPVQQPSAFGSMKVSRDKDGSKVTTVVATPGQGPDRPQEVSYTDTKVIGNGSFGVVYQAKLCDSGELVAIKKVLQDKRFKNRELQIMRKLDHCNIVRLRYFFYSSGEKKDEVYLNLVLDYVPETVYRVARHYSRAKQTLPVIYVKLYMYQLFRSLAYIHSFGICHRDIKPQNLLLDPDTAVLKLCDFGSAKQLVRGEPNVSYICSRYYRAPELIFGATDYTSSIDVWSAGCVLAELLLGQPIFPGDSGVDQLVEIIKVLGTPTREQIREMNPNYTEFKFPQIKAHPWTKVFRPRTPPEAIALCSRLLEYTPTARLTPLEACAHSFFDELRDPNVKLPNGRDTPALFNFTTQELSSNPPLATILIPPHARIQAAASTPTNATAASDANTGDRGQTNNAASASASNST
In assay [6] the target is Protein kinase C alpha type (Homo sapiens) (UniProt P17252). The experiment in a line: Residual activity of Protein kinase C alpha (PKCalpha) at 50 uM.
For assay [7], the target named is T3, AMP-activated protein kinase, AMPK (Homo sapiens) (UniProt P54646+O43741+P54619+Q9UGJ0+Q9Y478+Q13131+Q9UGI9). Nature of the assay: Residual activity of AMP-activated Protein Kinase (AMPK) at 50 uM.
The target of assay [8] is T1, Ribosomal protein S6 kinase beta-1. Nature of the assay: Inhibition of Ribosomal protein S6 kinase 1 (S6K1).
Target sequence in this assay (P23443 whole entry): as the sequence (P23443 whole entry, looked up) above
Assay [9] concerns the target T4, Serine/threonine-protein kinase Chk1 (Homo sapiens) (UniProt O14757).
T4 sequence (whole entry): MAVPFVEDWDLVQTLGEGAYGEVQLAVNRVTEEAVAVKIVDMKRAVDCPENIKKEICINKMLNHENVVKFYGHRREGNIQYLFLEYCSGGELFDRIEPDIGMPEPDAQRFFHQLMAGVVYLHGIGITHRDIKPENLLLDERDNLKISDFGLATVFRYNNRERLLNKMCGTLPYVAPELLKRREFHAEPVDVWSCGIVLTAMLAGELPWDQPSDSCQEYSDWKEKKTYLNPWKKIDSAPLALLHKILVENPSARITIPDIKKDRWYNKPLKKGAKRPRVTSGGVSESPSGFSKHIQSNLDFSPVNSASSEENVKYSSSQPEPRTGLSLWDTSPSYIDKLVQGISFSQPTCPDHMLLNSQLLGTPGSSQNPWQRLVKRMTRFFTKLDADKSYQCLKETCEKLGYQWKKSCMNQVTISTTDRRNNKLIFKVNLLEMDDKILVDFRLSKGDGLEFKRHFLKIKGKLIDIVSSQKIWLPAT
The experiment in a line: Residual activity of Serine/threonine-protein kinase Chk1 (CHK1) at 50 uM.

For assay [10], the target named is Ribosomal protein S6 kinase alpha-3 (Homo sapiens) (UniProt P51812). The experiment in a line: Residual activity of Ribosomal S6 kinase 2 (RSK2) at 1 uM.
Sequence of Ribosomal protein S6 kinase alpha-3 (Homo sapiens) (P51812 whole entry): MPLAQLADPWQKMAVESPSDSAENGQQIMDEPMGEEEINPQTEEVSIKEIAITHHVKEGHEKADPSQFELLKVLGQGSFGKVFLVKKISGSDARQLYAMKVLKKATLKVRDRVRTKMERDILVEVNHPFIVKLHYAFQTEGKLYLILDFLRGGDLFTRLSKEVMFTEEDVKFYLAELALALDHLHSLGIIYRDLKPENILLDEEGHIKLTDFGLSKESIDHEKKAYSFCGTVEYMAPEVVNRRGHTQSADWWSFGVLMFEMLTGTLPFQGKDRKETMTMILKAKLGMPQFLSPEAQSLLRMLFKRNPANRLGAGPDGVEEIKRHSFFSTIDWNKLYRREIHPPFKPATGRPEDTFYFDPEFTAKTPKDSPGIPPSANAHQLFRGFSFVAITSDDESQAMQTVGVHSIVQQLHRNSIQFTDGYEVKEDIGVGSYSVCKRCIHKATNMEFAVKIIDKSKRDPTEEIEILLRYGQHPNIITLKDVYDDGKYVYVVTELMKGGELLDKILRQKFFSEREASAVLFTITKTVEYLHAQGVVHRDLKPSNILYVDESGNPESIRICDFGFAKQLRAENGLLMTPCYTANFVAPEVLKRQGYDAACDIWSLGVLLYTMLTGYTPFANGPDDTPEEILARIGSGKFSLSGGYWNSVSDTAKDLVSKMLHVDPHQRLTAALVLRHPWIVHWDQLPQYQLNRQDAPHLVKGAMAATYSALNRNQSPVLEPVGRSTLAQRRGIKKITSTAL
Assay [11] addresses T3, AMP-activated protein kinase, AMPK (Homo sapiens). Nature of the assay: Residual activity of AMP-activated Protein Kinase (AMPK) at 1 uM.

Sequence of Ribosomal protein S6 kinase alpha-5 (Homo sapiens) (O75582 whole entry, looked up): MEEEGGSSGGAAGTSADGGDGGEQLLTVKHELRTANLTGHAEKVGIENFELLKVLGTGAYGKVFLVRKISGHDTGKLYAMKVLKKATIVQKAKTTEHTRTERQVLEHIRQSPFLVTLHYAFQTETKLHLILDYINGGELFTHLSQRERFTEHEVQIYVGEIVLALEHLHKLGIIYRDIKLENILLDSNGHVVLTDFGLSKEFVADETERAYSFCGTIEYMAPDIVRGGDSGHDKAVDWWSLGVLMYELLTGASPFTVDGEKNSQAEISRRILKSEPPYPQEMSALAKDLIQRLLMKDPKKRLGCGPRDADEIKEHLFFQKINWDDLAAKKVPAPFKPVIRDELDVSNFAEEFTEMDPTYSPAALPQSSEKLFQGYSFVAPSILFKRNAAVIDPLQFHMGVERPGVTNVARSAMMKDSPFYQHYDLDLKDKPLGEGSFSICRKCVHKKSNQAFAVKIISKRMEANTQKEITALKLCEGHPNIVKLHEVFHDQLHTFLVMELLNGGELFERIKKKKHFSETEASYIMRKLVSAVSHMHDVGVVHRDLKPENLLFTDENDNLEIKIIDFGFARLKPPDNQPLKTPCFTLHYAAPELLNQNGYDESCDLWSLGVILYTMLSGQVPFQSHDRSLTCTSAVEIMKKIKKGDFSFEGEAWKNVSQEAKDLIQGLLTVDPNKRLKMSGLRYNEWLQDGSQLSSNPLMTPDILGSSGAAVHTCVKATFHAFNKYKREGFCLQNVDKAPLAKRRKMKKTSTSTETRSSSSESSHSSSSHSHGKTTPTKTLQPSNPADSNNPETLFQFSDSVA

As to `CN1C(=O)C(c2c[nH]c3ccccc23)=C(c2cn(CCCN)c3ccccc23)C1=O`, the residual activity in assay [1] turned out to be 106%; in [2], 90%; in [3], 28%; in [4], 109%; in assay [5], 94%; in assay [6], 66%. Moreover, the values for the residual activity in assay [7] and in [9] were 88% and 93%, respectively. This compound also displayed an IC50 in assay [8] of 25 µM.

With `CN(C)CCCn1cc(C2=C(c3c[nH]c4ccccc34)C(=O)NC2=O)c2ccccc21`, the residual activity in assay [10] came to 9%; in assay [11], 54%.

The term IC50 denotes the concentration that inhibits the measured activity by half.

The values above are taken from ChEMBL document CHEMBL1139630, “Structure-activity relationship of N-methyl-bisindolylmaleimide derivatives as cell death inhibitors” (Bioorg Med Chem Lett, 2005).
